Reference: publication PMC7045694 (ACS Nano, 2020)

Biological target: T1, LBP (leucine-binding protein) (Escherichia coli, UniProt P04816)
T1 sequence (P04816 24-369): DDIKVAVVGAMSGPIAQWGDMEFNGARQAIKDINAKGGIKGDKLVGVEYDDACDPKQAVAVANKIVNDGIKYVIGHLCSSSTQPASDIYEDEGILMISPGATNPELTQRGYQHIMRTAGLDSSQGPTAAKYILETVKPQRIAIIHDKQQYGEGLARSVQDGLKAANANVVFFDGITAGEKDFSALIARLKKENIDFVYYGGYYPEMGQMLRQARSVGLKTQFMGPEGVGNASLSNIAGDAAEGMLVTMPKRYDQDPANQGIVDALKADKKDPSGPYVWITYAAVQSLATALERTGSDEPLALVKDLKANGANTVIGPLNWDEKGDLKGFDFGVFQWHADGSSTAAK

Kd: 86 ± 19 nM
SMILES: CC(C)C[C@H](N)C(=O)O [leucine]
